In patent US20090111857A1, “1,2,4-TRIAZOLE ETHER DERIVATIVES AS MODULATORS OF MGLUR5” (AstraZeneca AB, priority 2007, published 2009):

Experiments:
[1] = Determination of brain to plasma ratio in rat; assay type: in vivo; settings: brain and plasma, female Sprague Dawley rats, drug in brain over drug in plasma, read-out: Brain/Plasma Ratio of compound in Rat
Protocol: Brain to plasma ratios are estimated in female Sprague Dawley rats. The compound is dissolved in water or another appropriate vehicle. For determination of brain to plasma ratio the compound is administrated as a subcutaneous, or an intravenous bolus injection, or an intravenous infusion, or an oral administration. At a predetermined time point after the administration a blood sample is taken with cardiac puncture. The rat is terminated by cutting the heart open, and the brain is immediately retained. The blood samples are collected in heparinized tubes and centrifuged within 30 minutes, in order to separate the plasma from the blood cells. The plasma is transferred to 96-well plates and stored at −20° C. until analysis. The brains are divided in halt and each half is placed in a pre-tarred tube and stored at −20° C. until analysis. Prior to the analysis, the brain samples are thawed and 3 mL/g brain tissue of distilled water is added to the tubes. The brain samples are sonicated in an ice bath until the samples are homogenized. Both brain and plasma samples are precipitated with acetonitrile. After centrifugation, the supernatant is diluted with 0.2% formic acid. Analysis is performed on a short reversed-phase HPLC column with rapid gradient elution and MSMS detection using a triple quadrupole instrument with electrospray ionisation and Selected Reaction Monitoring (SRM) acquisition. Liquid-liquid extraction may be used as an alternative sample clean-up. The samples are extracted, by shaking, to an organic solvent after addition of a suitable buffer. An aliquot of the organic layer is transferred to a new vial and evaporated to dryness under a stream of nitrogen. After reconstitution of the residuals the samples are ready for injection onto the HPLC column.

[2] = biological target: T1, human mGluR5d (Homo sapiens, UniProt P41594); assay: FLIPR assay: mobilization of intracellular calcium in cells expressing human mGluR5d; assay type: cell-based; settings: antagonism of agonist-induced [Ca2+]i response, read-out: FLIPR hmGluR5d
T1 construct: expressed in transfected cells; The separate IP3 assay names GHEK cells
Excerpt: Functional Assessment of mGluR5 Antagonism in Cell Lines Expressing mGluR5D
The properties of the compounds of the invention can be analyzed using standard assays for pharmacological activity. Examples of glutamate receptor assays are well known in the alt as described in for example Aramori et al., Neuron 8:757 (1992), Tanabe et al., Neuron 8:169 (1992), Miller et al., J. Neuroscience 15: 6103 (1995), Balazs, et al., J. Neurochemistry 69:151 (1997). The methodology described in these publications is incorporated herein by reference. Conveniently, the compounds of the invention can be studied by means of an assay (FLIPR) that measures the mobilization of intracellular calcium, [Ca^2+]i in cells expressing mGluR5 or another assay (IP3) that measures inositol phosphate turnover.
Cells expressing human mGluR5d as described in WO97/05252 cultured in a mixture of high glucose DMEM with Glutamax (31966-021)(500 mL), 10% dialyzed fetal bovine serum (Hyclone #SH30079.03)(56 mL), 200 μg/in L Hygromycin B (Invitrogen 45-0430, 50 mg/mL)(2.2 mL), 200 μg/mL Zeocin (Invitrogen #R250-01; 100 mg/mL)(1.1 mL) are seeded at a density of 100,000 cells per well on collagen coated clear bottom 96-well plates with black sides and cells were allowed to adhere over night before experiments. All assays are done in a buffer containing 146 mM NaCl, 5 mM KCl, 1 mM MgCl2, 1 mM CaCl2, 20 mM HEPES, 1 mg/mL glucose and 1 mg/mL BSA Fraction IV (pH 7.4). Cell cultures in the 96-well plates are loaded for 60 minutes in the above mentioned buffer containing 6 μM of the acetoxymethyl ester form of the fluorescent calcium indicator fluo-3 (Molecular Probes, Eugene, Oreg.) in 0.025% pluronic acid (a proprietary, non-ionic surfactant polyol—CAS Number 9003-11-6). Following the loading period the fluo-3 buffer is removed and replaced with fresh assay buffer. FLIPR experiments are done using a laser setting of 0.700 W and a 0.4 second CCD camera shutter speed with excitation and emission wavelengths of 488 nm and 562 nm, respectively. Each experiment is initiated with 160 μl of buffer present in each well of the cell plate. A 40 μl addition from the antagonist plate was followed by a 50 μL addition from the agonist plate. A 30 minutes, in dark at 25° C., interval separates the antagonist and agonist additions. The fluorescence signal is sampled 50 times at 1-second intervals followed by 3 samples at 5-second intervals immediately after each of the two additions. Responses are measured as the difference between the peak heights of the response to agonist less the background fluorescence within the sample period. IC50 determinations are made using a […] least squares fitting program.

T1 sequence (P41594 21-942 isoform P41594-3 limits assumed): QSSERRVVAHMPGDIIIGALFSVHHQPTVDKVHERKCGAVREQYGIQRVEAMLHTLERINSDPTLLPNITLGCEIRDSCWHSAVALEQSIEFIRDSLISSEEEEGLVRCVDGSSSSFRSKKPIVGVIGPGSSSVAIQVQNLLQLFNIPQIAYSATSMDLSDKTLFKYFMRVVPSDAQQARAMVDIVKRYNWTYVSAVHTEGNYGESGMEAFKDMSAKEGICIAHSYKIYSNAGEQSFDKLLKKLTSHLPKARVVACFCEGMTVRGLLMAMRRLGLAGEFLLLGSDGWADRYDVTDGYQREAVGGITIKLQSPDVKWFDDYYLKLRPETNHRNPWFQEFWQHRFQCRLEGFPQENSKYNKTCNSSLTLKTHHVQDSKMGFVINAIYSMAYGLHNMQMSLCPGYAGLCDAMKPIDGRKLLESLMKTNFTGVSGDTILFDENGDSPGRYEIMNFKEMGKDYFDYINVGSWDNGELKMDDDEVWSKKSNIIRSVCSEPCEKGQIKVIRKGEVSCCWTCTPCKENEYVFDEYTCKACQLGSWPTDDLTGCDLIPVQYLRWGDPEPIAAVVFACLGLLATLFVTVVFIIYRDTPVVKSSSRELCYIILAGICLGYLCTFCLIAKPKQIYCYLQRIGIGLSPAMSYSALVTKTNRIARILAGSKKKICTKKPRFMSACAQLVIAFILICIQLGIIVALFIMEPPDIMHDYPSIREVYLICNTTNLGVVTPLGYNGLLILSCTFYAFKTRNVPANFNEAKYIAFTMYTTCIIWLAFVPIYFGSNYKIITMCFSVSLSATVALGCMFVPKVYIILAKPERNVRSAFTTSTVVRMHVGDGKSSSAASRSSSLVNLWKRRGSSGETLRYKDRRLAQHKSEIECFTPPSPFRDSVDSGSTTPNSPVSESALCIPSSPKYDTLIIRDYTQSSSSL

Row | Structure (SMILES) | Kp [1] | IC50 [2] [nM]
1 | C[C@@H](Oc1nnc(-c2ccc(C(N)=O)cn2)n1C)c1nnn(-c2cccc(Cl)c2)n1 [Example 10.3, 6-(5-{(1R)-1-[2-(3-Chlorophenyl)-2H-tetrazol-5-yl]ethoxy}-4-methyl-4H-1,2,4-triazol-3-yl)nicotinamide] | 0.075 | 5
2 | Cc1cccc(-n2nnc([C@@H](C)Oc3nnc(-c4ccc(C(N)=O)cn4)n3C)n2)c1 [Example 10.4, 6-(4-Methyl-5-{(1R)-1-[2-(3-methylphenyl)-2H-tetrazol-5-yl]ethoxy}-4H-1,2,4-triazol-3-yl)nicotinamide] | 0.09 | 6
3 | C[C@@H](Oc1nnc(-c2ccc(C(N)=O)cc2)n1C)c1nnn(-c2cccc(Cl)c2)n1 [Example 10.2, 4-(5-{(1R)-1-[2-(3-Chlorophenyl)-2H-tetrazol-5-yl]ethoxy}-4-methyl-4H-1,2,4-triazol-3-yl)benzamide] | 0.01 | 6
4 | C[C@@H](Oc1nnc(-c2ccc(C(N)=O)cc2)n1C)c1noc(-c2cccc(Cl)c2)n1 [Example 10.1, 4-(5-{(1R)-1-[5-(3-Chlorophenyl)-1,2,4-oxadiazol-3-yl]ethoxy}-4-methyl-4H-1,2,4-triazol-3-yl)benzamide] | 0.03 | 8
